How the values were obtained:
Aβ1-42 = molecular target: T1, Aβ1-42 (Homo sapiens, UniProt P05067); assay: Inhibition of the precipitation of Aβ1-42 by the addition of ligand (Micro BCA assay of soluble/aggregated peptide); type: biochemical; conditions: Aβ1-42 5 μM, pH 7.4; for CuCl2 % soluble Aβ: 20 μM CuCl2, 1 h 37° C. then 1 h with 200 μM ligand; for FeCl3 % soluble Aβ: 20 μM FeCl3, 1 h 37° C. then 1 h with 200 μM ligand; for ZnCl2 % soluble Aβ: 20 μM ZnCl2, 1 h 37° C. then 1 h with 200 μM ligand; for without metal % soluble Aβ: no metal salt, 1 h 37° C. then 1 h with 200 μM ligand
T1 construct: The β-amyloid peptide Aβ1-42 (Aβ1-42) was synthesised, purified (to a purity greater than 95%); made in house; host or cells: chemical peptide synthesis (no expression host)
Protocol: After a further hour of incubation, the reaction mixture is centrifuged.
Before use, the water [of Milli-Q Millipore quality] and all buffer solutions were treated on Chelex-100 resin (Biorad) (5 mg/ml) and filtered through 0.2 μm filters (Whatman) to remove potential traces of metal ions or particles.
Working solutions of the peptide were prepared by solubilising 1 mg of lyophilised peptide in 500 μl of water and 500 μl of an aqueous NaOH solution pH=12.0, while stirring in a Thermomixer Comfort (Eppendorf). The peptide preparations are subsequently centrifuged for 10 minutes at 9,000 rpm and the supernatant is used as an “Aβ stock” solution. The concentration of peptide in the “Aβ stock” is determined immediately by colorimetric assay using a Micro BCA Protein Assays kit (Pierce) from standard ranges produced using known amounts of bovine serum albumin (BSA) then the Aβ1-42 peptide solution is aliquoted and frozen rapidly in liquid nitrogen prior to being stored at −20° C. until being used.
Salts are generated by adding one hydrochloric acid equivalent per nitrogen group equivalent of the ligand dissolved in DMSO. After evaporation of the solvent, these salts are dissolved at the desired concentration with DMSO and kept at −20° C. until they are used.
The protocol was established from works by: C. S. Atwood et al., J. Neurochem. […] The final concentrations are given. 500 μl of Aβ1-42 (5 μM is set to aggregate in 20 mM Tris-HCl buffer containing 150 mM NaCl (pH=7.4) for 1 hour at 37° C. while stirring at 1,400 rpm in the absence or presence of metal ions: CuCl2, ZnCl2 or FeCl3 (20 μM). Then 50 pi of ligand to be tested (200 μM) dissolved in DMSO are added and the samples are incubated for 1 further hour at 37° C. while stirring at 1,400 rpm. The samples without ligand also receive 50 μl of DMSO. The samples (final volume=550 μ) are subsequently centrifuged for 20 min at 9,000 rpm, and 500 μl of supernatant are removed. The tube containing the precipitation pellet then receives 450 μl of assay buffer/DMSO mixture (91/9, v/v). […] Quantification is carried out on the basis of standard BSA ranges. The amounts of Aβ1-42 actually contained in the pellet and the supernatant are obtained after a correction due to the presence of a residual portion of supernatant in the pellet-containing fraction.
For the control experiments with derivatives comprising a single quinoline residue, […] of ligand were added because complexes of type L2Cu are conventionally used in these cases.

[1] = Determination of log D7.4 (1-octanol / Tris-HCl buffer); type: physicochemical; conditions: 1-octanol / 20 mM Tris-HCl buffer containing 150 mM NaCl (pH = 7.4) (1/1, v/v)
Protocol: The ligand (2.0 mg) is dissolved in 2 ml of 1-octanol then 2 ml of 20 mM Tris-HCl buffer, pH=7.4 containing 150 mM NaCl are added. After mixing in a vortex for 3 min at ambient temperature, followed by centrifugation for 5 min at 9,000 rpm, the concentration of the ligand in each phase is determined by UV-visible spectrophotometry. The 1-octanol fractions are thus redivided until reproducible values of coefficient of division of obtained. This coefficient is expressed as the decimal logarithm of [(the concentration of ligand contained in the 1-octanol phase)/(the concentration of ligand contained in the buffered aqueous phase)]=log D7.4. Measurements were taken three times.

[2] = molecular target: T2, copper complexes of Aβ1-42 peptide (Homo sapiens, UniProt P05067); assay: Hydrogen peroxide produced by Aβ1-42 in the presence of CuCl2, ascorbate, air and ligand (Amplex Red H2O2/HRP); type: biochemical; conditions: CuCl2 0.4 μM, ascorbate 10 μM, air
T2 construct: The β-amyloid peptide Aβ1-42 (Aβ1-42) was synthesised, purified (to a purity greater than 95%); made in house; host or cells: chemical peptide synthesis (no expression host)
Protocol: (§1) FIG. 11: Variation in H2O2 production by copper complexes of Aβ1-42 peptide as a function of the Cu(II)/Aβ stoichiometry. Experiments are carried out for 5 minutes in a sodium phosphate buffer (pH=7.4) in the presence 0.4 μM CuCl2, 10 μM ascorbate and air with or without 0.4 μM of 3 or 7. The H2O2 released is quantified by means of an Amplex-Red H2O2/HRP Assay kit.
(§2) The final concentrations are given. The reactions were carried out in the dark in mM sodium phosphate buffer (pH=7.4). Aβ1-42 (0.2 μM) and CuCl2 (0.4 μM) were pre-incubated for 1 hour at 37° C. while stirring at 1,400 rpm in 375 μl of buffer. Then 2 μl of a solution of ligand to be investigated (0.2; 0.4 or 0.8 μM) in DMSO were added. After incubation for a further hour, 2 μl of an aqueous sodium ascorbate solution (10 μM) were added and incubation was continued for 5 min while stirring. The amount of H2O2 produced is then quantified using an Amplex Red H2O2/HRP Assay Kit (Molecular Probes) while adding a volume of assay reagent to the samples, then incubating them for 1 hour at 37° C. while stirring at 500 rpm. […] Quantification is carried out on the basis of standard curves obtained with known amounts of H2O2.
(§3) The figures in the tables correspond to the amount of H2O2 (expressed in nanomoles) added using an Amplex Red H2O2/HRP Assay kit.

[3] = as above; type: biochemical; conditions: CuCl2 0.4 μM, ascorbate 10 μM, air
Protocol: as §1, §2, §3

[4] = molecular target: T2, copper complexes of Aβ1-42 peptide; assay: Stability of H2O2 during the H2O2 production inhibition experiments (known amount of H2O2 added); type: biochemical; conditions: Aβ1-42 0.2 μM, Cu(II) 0.4 μM, ascorbate 10 μM, ligand 0.4 μM
Protocol: (§4) The final concentrations are given. The reactions were carried out in the dark in mM sodium phosphate buffer (pH=7.4). Aβ1-42 (0.2 μM) and CuCl2 (0.4 μM) were pre-incubated for 1 hour at 37° C. while stirring at 1,400 rpm in 375 μl of buffer. Then 2 μl of a solution of ligand to be investigated (0.2; 0.4 or 0.8 μM) in DMSO were added. After incubation for a further hour, 2 μl of an aqueous sodium ascorbate solution (10 μM) were added and incubation was continued for 5 min while stirring. The amount of H2O2 produced is then quantified using an Amplex Red H2O2/HRP Assay Kit (Molecular Probes) while adding a volume of assay reagent to the samples, then incubating them for 1 hour at 37° C. while stirring at 500 rpm. H2O2 is then detected by spectrophotometry at 563 nm. Quantification is carried out on the basis of standard curves obtained with known amounts of H2O2.
(§5) Experiments were also carried out in the presence of a known amount of H2O2, added just before or just after the addition of sodium ascorbate, in order to investigate the stability of H2O2 under the experimental conditions employed.

[5] = system: copper complexes of Aβ1-42 peptide; assay: as above; type: biochemical; conditions: for theoretical value of H2O2 if there is no degradation (in parentheses): ascorbate, ligand; for H2O2 assayed: no Aβ1-42, Cu(II) 0.4 μM, ascorbate 10 μM, ligand 0.4 μM
Protocol: as §4, §5

[6] = 3.0 nanomoles H2O2 added just before the ascorbate

T1 sequence (P05067 672-713): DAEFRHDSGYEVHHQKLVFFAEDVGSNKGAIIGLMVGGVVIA
T2 sequence (P05067 672-713 limits assumed, one chain of several): as the sequence (P05067 672-713) above

| Structure (SMILES) | CuCl2 % soluble Aβ (Aβ1-42) | FeCl3 % soluble Aβ (Aβ1-42) | ZnCl2 % soluble Aβ (Aβ1-42) | without metal % soluble Aβ (Aβ1-42) | logD at 3 min [1] | amount of H2O2, 0.2 μM Aβ1-42 Cu/Aβ = 2 ([2]; ligand 1 eq/Cu(II) (0.4 μM)) | amount of H2O2, 0.5 μM Aβ1-42 Cu/Aβ = 0.75 ([2]; ligand 1 eq/Cu(II) (0.4 μM)) | H2O2 assayed [4, 6] | H2O2 assayed ([4]; no H2O2 added) | amount of H2O2, without Aβ1-42 ([3]; ligand 1 eq/Cu(II) (0.4 μM)) | theoretical value of H2O2 if there is no degradation (in parentheses) ([5]; Aβ1-42 0.2 μM, Cu(II), 3.0 nanomoles H2O2 added just before the ascorbate) | amount of H2O2, without Aβ1-42 ([3]; ligand 2 eq/Cu(II)) | amount of H2O2, 0.2 μM Aβ1-42 Cu/Aβ = 2 ([2]; ligand 2 eq/Cu(II)) | amount of H2O2, 0.5 μM Aβ1-42 Cu/Aβ = 0.75 ([2]; ligand 2 eq/Cu(II)) | H2O2 assayed [5, 6] | H2O2 assayed ([5]; no H2O2 added) | theoretical value of H2O2 if there is no degradation (in parentheses) ([5]; no Aβ1-42, Cu(II), 3.0 nanomoles H2O2 added just before the ascorbate) |
| --- | --- | --- | --- | --- | --- | --- | --- | --- | --- | --- | --- | --- | --- | --- | --- | --- | --- |
| Cc1ccc2cccc(O)c2n1 [8-hydroxyquinaldine, reference compound] | 52% | 51% | 62% | 69% | 2.4 ± 0.1 |  |  |  |  |  |  |  |  |  |  |  |  |
| Oc1cccc2ccc(Cc3ccc4cccc(O)c4n3)nc12 [Compound 1, 2,2′-methanediyl-bis(8-hydroxyquinoline)] | 60 ± 5% | 61% | 63% | 63 ± 4% | 3.3 ± 0.1 | 0.75 ± 0.11 nmol | 0.76 nmol |  |  | 0.54 nmol |  |  |  |  |  |  |  |
| Oc1ccc(Cl)c2ccc(Cc3ccc4c(Cl)ccc(O)c4n3)nc12 [Compound 2, 2,2′-methanediyl-bis(5-chloro-8-hydroxyquinoline)] | 45 ± 5% | 58% | 57% | 66% | 3.5 ± 0.1 | 0.80 ± 0.23 nmol | 0.61 nmol |  |  | 0.56 nmol |  |  |  |  |  |  |  |
| Nc1cccc2cccnc12 [8-aminoquinoline, reference compound] | 40% | 58% | 67% | 66 ± 3% | 1.9 ± 0.1 |  |  |  |  |  |  |  |  |  |  |  |  |
| Oc1cccc2cccnc12 [8-hydroxyquinoline, reference compound] | 70 ± 3% | 80% | 88% | 85% | 2.1 ± 0.1 | 0.69 nmol | 0.75 nmol |  |  | 2.02 nmol |  | 0.62 nmol | 0.71 ± 0.05 nmol | 0.62 nmol |  |  |  |

Second part, led by results:

| CuCl2 % soluble Aβ (Aβ1-42) | FeCl3 % soluble Aβ (Aβ1-42) | ZnCl2 % soluble Aβ (Aβ1-42) | without metal % soluble Aβ (Aβ1-42) | logD at 3 min [1] | amount of H2O2, 0.2 μM Aβ1-42 Cu/Aβ = 2 ([2]; ligand 1 eq/Cu(II) (0.4 μM)) | amount of H2O2, 0.5 μM Aβ1-42 Cu/Aβ = 0.75 ([2]; ligand 1 eq/Cu(II) (0.4 μM)) | H2O2 assayed [4, 6] | H2O2 assayed ([4]; no H2O2 added) | Structure (SMILES) | amount of H2O2, without Aβ1-42 ([3]; ligand 1 eq/Cu(II) (0.4 μM)) | theoretical value of H2O2 if there is no degradation (in parentheses) ([5]; Aβ1-42 0.2 μM, Cu(II), 3.0 nanomoles H2O2 added just before the ascorbate) | amount of H2O2, without Aβ1-42 ([3]; ligand 2 eq/Cu(II)) | amount of H2O2, 0.2 μM Aβ1-42 Cu/Aβ = 2 ([2]; ligand 2 eq/Cu(II)) | amount of H2O2, 0.5 μM Aβ1-42 Cu/Aβ = 0.75 ([2]; ligand 2 eq/Cu(II)) | H2O2 assayed [5, 6] | H2O2 assayed ([5]; no H2O2 added) | theoretical value of H2O2 if there is no degradation (in parentheses) ([5]; no Aβ1-42, Cu(II), 3.0 nanomoles H2O2 added just before the ascorbate) |
| --- | --- | --- | --- | --- | --- | --- | --- | --- | --- | --- | --- | --- | --- | --- | --- | --- | --- |
| 48% | 43% | 45% | 48% | 3.7 ± 0.1 |  |  |  |  | Oc1cccc2ccc(CC(Cc3ccc4cccc(O)c4n3)c3ccc4cccc(O)c4n3)nc12 [Compound 11, 2,2′,2″-(1,2,3-Propanetriyl)-tris(8-hydroxyquinoline)] |  |  |  |  |  |  |  |  |
| 48 ± 3% | 44 ± 6% | 50% | 53% |  | 0.70 nmol |  |  |  | COc1ccc2ccc(Cc3ccc4ccc(OC)c(O)c4n3)nc2c1O.Cl.Cl [Compound 16, 2,2′-(methanediyl)-bis(7-methyloxy-8-hydroxy-2-quinolinium) dichloride] |  |  |  |  |  |  |  |  |
| 35% | 42% | 23% | 72% | 2 ± 0.1 | 1.02 nmol |  |  |  | c1cnc2c(Oc3cccc4cccnc34)cccc2c1 [Compound 15, 8,8′-Oxydiquinoline] |  |  |  |  |  |  |  |  |
| 45 ± 3% | 51% | 57% | 79 ± 3% | 1.8 ± 0.1 | 1.99 nmol | 0.78 nmol | 4.9 nmol | 1.99 ± 0.11 nmol | Cc1ccc2cccc(NCCNc3cccc4ccc(C)nc34)c2n1 [Compound 14, N,N′-bis(2-methyl-8-quinolinyl)-1,2-ethanediamine] | 0.74 nmol | 5.0 nmol |  |  |  |  |  |  |
| 46 ± 3% | 49% | 62 ± 5% | 66% | 3 ± 0.1 | 0.47 nmol | 0.45 nmol |  |  | O=C(Nc1ccc2cccc(O)c2n1)c1ccc2cccc(O)c2n1 [Compound 18, 8-hydroxy-N-(8-hydroxy-2-quinolinyl)-2-quinolinecarboxamide] | 0.47 nmol |  |  |  |  | 3.5 (3.5) nanomoles | 0.47 nmol | 3.5 (3.5) nanomoles |
| 21% | 38% | 21% | 64% | 2.6 ± 0.1 | 0.62 nmol | 0.47 nmol |  |  | O=C(Nc1cccc2cccnc12)c1cccc2cccnc12 [Compound 24, N-8-quinolinyl-8-quinoline carboxamide] | 0.49 nmol |  |  |  |  |  |  |  |

— patent US20120277265A1, “NOVEL POLYQUINOLINE DERIVATIVES AND THE THERAPEUTIC USE THEREOF” (CENTRE NATIONAL DE LA RECHERCHE SCIENTIFIQUE (C.N.R.S.), priority 2005, published 2012)
